Measured values from patent US9212139B2, “Aryl substituted indoles and their use as blockers of sodium channels” (Purdue Pharma, L.P., priority 2010, dated 2015).
Read-outs that look alike come from different tables or passages of the source.

Molecular target: human Nav1.7 (Homo sapiens (Human), UniProt Q15858)
Experiment: FLIPR or FLIPR TETRA sodium dye assay with KCl and test article pre-incubation
Type: cell-based
Source text: For dominant selection of the Nav1.7-expressing clones, the expression plasmid co-expressed the neomycin resistance gene. […] Recombinant beta and gamma subunits were not introduced into this cell line. Additional cell lines expressing recombinant Nav1.7 cloned from other species can also be used, alone or in combination with various beta subunits, gamma subunits or chaperones.
Cell maintenance: Unless otherwise noted, cell culture reagents were purchased from Mediatech of Herndon, Va. The recombinant Nav1.7/HEK293 cells were routinely cultured in growth medium consisting of Dulbecco's […] containing 10% fetal bovine serum (FBS, Hyclone, Thermo Fisher Scientific, Logan, Utah), 100 U/mL penicillin, […], 2-4 mM L-glutamine, and […]. For natural, non-recombinant cell lines, the selective antibiotic was omitted, and additional media formulations can be applied as needed.
The intensity of this emission, but not the wavelength range, is increased when the dye is exposed to Na^+ ions, which it can bind with partial selectivity. Cells expressing Nav1.7 or other sodium channels were loaded with the CoroNa™ Green dye immediately in advance of the fluorescence assay, and then, after agonist stimulation, the mobilization of Na^+ ions was detected as the Na^+ ions flowed from the extracellular fluid into the cytoplasm through the activated sodium channel pores. The dye was stored in the dark as a lyophilized powder, and then an aliquot was dissolved immediately before the cell loading procedure, according to the instructions of the manufacturer to a stock concentration of 10 mM in DMSO. It was then diluted in the assay buffer to a 4× concentrated working solution, so that the final concentration of dye in the cell loading buffer was 5 μM.
These scorpion toxins inhibit the fast inactivation of their cognate target channels. Stock solutions of the agonists were prepared to 40 mM in DMSO (veratridine) and 1 mg/mL in dH2O (scorpion venom), and then diluted to make a 4× or 2× stock (depending on the particular assay) in assay buffer, the final concentration being 100 μM (veratridine) and 10 μg/mL (scorpion venom). Both of the agonists were purchased from Sigma Aldrich, St. Louis, Mo.
Test Compounds: Test compounds were dissolved in DMSO to yield 10 mM stock solutions. […] If a particular test article appeared to be especially potent, then the concentration curve was adjusted, e.g., to 10-fold lower concentrations, in order to perform the dose-response in a more relevant concentration range. Compound dilutions were added during the dye-loading and pre-stimulation step, and then again during the fluorescence assay, early in the kinetic read.
Data Analysis: The data were analyzed according to methods known to those skilled in the art or using the GraphPad® Prism 4.0 Program (available from GraphPad Software, San Diego, Calif.) to determine the IC50 value for the test article. At least one standard reference compound was evaluated during each experiment.
FLIPR® or FLIPR^TETRA® sodium dye assay with KCl and test article pre-incubation: Cells were prepared by plating the recombinant HEK293 cells or other host cells expressing either recombinant or non-recombinant, native, Nav1.7 alpha subunit, alone or in combination with various beta and gamma subunits at a density of ˜40,000 cells/well into a 96-well black, clear-bottom, PDL-coated plate. The assay can be adapted to 384-well or 1,536-well format, if desired, using proportionately less cells and media. […] For counter-screens of other voltage-gated sodium channels, the procedure was very similar, though optimal densities of cells, media and subsequent assay components can be fine-tuned for the particular cell line or isoform.

[1] = sodium dye assay with KCl, recombinant human Nav1.7 in HEK293 cells, value ± SEM
[2] = read-out: FLIPR Nav1.7 IC50 (μM) ± SEM

human Nav1.7, sequence (Q15858 other isoform, or with tags, fused parts or gaps): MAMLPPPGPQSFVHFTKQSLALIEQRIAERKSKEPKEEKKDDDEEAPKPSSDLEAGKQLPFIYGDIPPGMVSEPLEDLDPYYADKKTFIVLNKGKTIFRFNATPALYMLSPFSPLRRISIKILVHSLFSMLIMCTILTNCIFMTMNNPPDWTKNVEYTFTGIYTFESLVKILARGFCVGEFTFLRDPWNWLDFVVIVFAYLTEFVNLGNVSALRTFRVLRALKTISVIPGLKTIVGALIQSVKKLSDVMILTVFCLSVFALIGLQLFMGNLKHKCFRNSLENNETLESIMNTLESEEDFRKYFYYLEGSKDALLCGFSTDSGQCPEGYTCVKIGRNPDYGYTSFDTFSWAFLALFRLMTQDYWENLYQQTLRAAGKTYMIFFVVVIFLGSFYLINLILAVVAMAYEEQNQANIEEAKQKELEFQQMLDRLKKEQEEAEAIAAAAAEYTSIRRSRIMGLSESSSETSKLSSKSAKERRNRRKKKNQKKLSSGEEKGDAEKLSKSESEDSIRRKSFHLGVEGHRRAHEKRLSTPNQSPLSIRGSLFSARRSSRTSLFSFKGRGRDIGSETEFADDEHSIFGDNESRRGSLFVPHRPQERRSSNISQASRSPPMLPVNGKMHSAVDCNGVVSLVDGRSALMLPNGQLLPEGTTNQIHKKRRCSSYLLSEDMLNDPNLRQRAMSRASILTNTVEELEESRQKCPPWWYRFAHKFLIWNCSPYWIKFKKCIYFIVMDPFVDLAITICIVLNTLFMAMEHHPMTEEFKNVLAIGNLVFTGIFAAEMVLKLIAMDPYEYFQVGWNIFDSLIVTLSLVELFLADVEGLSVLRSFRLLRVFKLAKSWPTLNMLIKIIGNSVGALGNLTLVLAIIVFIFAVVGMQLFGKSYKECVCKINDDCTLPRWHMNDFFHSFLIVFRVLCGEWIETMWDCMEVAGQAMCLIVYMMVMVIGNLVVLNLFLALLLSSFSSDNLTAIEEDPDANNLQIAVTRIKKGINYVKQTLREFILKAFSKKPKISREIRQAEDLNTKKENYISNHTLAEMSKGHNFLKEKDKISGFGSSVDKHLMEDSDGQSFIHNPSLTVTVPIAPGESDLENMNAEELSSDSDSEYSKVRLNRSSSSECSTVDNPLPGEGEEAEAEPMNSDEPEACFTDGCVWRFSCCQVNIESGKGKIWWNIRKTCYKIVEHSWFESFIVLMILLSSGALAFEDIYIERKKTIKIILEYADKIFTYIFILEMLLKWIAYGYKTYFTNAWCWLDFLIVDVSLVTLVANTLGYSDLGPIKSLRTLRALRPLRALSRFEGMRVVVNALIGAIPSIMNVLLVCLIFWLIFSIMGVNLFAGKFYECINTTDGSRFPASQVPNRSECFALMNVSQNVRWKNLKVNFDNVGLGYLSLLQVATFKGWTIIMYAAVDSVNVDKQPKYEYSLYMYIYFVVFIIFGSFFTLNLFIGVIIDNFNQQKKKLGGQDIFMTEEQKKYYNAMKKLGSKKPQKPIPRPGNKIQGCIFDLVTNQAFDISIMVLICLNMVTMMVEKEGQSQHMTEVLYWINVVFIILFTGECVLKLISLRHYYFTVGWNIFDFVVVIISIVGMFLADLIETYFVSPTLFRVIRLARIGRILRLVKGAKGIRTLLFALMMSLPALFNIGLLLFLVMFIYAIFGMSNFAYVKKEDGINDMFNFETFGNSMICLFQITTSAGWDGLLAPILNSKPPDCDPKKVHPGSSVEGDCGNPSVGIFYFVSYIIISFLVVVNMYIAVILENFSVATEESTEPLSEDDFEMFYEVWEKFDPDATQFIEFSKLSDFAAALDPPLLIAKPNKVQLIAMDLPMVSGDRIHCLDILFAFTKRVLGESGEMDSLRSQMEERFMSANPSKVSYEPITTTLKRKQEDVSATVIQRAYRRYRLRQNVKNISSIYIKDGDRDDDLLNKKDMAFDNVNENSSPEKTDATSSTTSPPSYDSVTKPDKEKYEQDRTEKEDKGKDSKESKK

`CCOC(=O)C(N)Cc1c[nH]c2ccc(-c3ccc(Oc4ccccc4)cc3)cc12` (stereo not drawn) [Compound 7, 2-Amino-3-[5-(4-phenoxyphenyl)-1H-indol-3-yl]propionic acid ethyl ester] showed an IC50 [1] of 0.481 ± 0.042 µM.
With `NC(Cc1c[nH]c2ccc(-c3ccc(Oc4ccccc4)cc3)cc12)C(=O)O` (stereo not drawn) [Compound 9, 2-Amino-3-[5-(4-phenoxyphenyl)-1H-indol-3-yl]propionic acid] the IC50 [1] was > 20 µM.
In the case of `NC(=O)C(N)Cc1c[nH]c2cc(-c3ccc(Oc4ccccc4)cc3)ccc12` (stereo not drawn) [Compound 15, 2-Amino-3-[6-(4-phenoxyphenyl)-1H-indol-3-yl]propionamide], the IC50 [1] is reported as 2.05 ± 0.094 µM.
`CCOC(=O)C(Cc1c[nH]c2cc(-c3ccc(Oc4ccccc4)cc3)ccc12)NC(=O)OC(C)(C)C` (stereo not drawn) [Compound 16, 2-tert-Butoxycarbonylamino-3-[6-(4-phenoxyphenyl)-1H-indol-3-yl]-propionic acid ethyl ester] gave an IC50 [1] of 2.52 ± 0.663 µM.
In the case of `CC(C)(C)OC(=O)NC(Cc1c[nH]c2cc(-c3ccc(Oc4ccccc4)cc3)ccc12)C(=O)O` (stereo not drawn) [Compound 17, 2-tert-Butoxycarbonylamino-3-[6-(4-phenoxyphenyl)-1H-indol-3-yl]-propionic acid], the IC50 [1] is reported as 1.93 ± 0.228 µM.
With `NC(=O)C(N)Cc1c(-c2ccc(Oc3ccccc3)cc2)[nH]c2ccccc12` (stereo not drawn) [Compound 28, 2-Amino-3-[2-(4-phenoxyphenyl)-1H-indol-3-yl]propionamide] the IC50 [1] was 0.24 ± 0.023 µM.
`NC(Cc1cn(-c2ccc(Oc3ccccc3)cc2)c2ccccc12)C(=O)NCCO` (stereo not drawn) [Compound 37, 2-Amino-N-(2-hydroxyethyl)-3-[1-(4-phenoxyphenyl)-1H-indol-3-yl]-propionamide] gave an IC50 [1] of 0.364 ± 0.112 µM.
`CS(=O)(=O)NC(Cc1cn(-c2ccc(Oc3ccccc3)cc2)c2ccccc12)C(N)=O` (stereo not drawn) [Compound 39, 2-Methanesulfonylamino-3-[1-(4-phenoxyphenyl)-1H-indol-3-yl]propionamide] gave an IC50 [1] of 1.01 ± 0.162 µM.
In the case of `N#Cc1cc(Oc2ccc(-n3cc(C(O)CO)c4ccccc43)cc2)ccc1C(F)(F)F` (stereo not drawn) [Compound 51, 5-{4-[3-(1,2-Dihydroxyethyl)-1H-indol-1-yl]phenoxy}-2-(trifluoromethyl)benzonitrile], the IC50 [2] is reported as 0.26 ± 0.009 µM.
`N#Cc1ccc(Oc2ccc(-n3cc(C[C@H](O)CO)c4ccccc43)cc2)cc1` [Compound 76, (S)-4-(4-(3-(2,3-Dihydroxypropyl)-1H-indol-1-yl)phenoxy)benzonitrile] was tested, and the IC50 [2] was 0.501 ± 0.089 µM.
`N#Cc1ccc(Oc2ccc(-n3cc(C[C@@H](O)CO)c4ccccc43)cc2)cc1` [Compound 77, (R)-4-(4-(3-(2,3-Dihydroxypropyl)-1H-indol-1-yl)phenoxy)benzonitrile] gave an IC50 [2] of 0.48 ± 0.087 µM.
In the case of `OC[C@@H](O)Cc1cn(-c2ccc(Oc3ccc(C(F)(F)F)cc3)cc2)c2ccccc12` [Compound 80, (S)-3-(1-(4-(4-(Trifluoromethyl)phenoxy)phenyl)-1H-indol-3-yl)propane-1,2-diol], the IC50 [1] is reported as 0.524 ± 0.085 µM.
`OC[C@@H](O)Cc1cn(-c2ccc(Oc3ccc(C(F)(F)F)cn3)cc2)c2ccccc12` [Compound 83, (S)-3-(1-(4-((5-(Trifluoromethyl)pyridin-2-yl)oxy)phenyl)-1H-indol-3-yl)propane-1,2-diol] gave an IC50 [1] of 0.257 ± 0.067 µM.
In the case of `CN(c1ccc(F)cc1)S(=O)(=O)c1ccc(-n2cc(C[C@H](O)CO)c3ccccc32)cc1` [Compound 90, (S)-4-(3-(2,3-Dihydroxypropyl)-1H-indol-1-yl)-N-(4-fluorophenyl)-N-methylbenzenesulfonamide], the IC50 [1] is reported as 0.865 ± 0.058 µM.
`O=S(=O)(Nc1ccc(F)cc1)c1ccc(-n2cc(C[C@H](O)CO)c3ccccc32)cc1` [Compound 92, (S)-4-(3-(2,3-Dihydroxypropyl)-1H-indol-1-yl)-N-(4-fluorophenyl)benzenesulfonamide] gave an IC50 [1] of 1.89 ± 0.164 µM.
With `N#Cc1ccc2c(C[C@H](O)CO)cn(-c3ccc(Oc4ccc(F)cc4)cc3)c2c1` [Compound 105, (S)-3-(2,3-Dihydroxypropyl)-1-(4-(4-fluorophenoxy)phenyl)-1H-indole-6-carbonitrile] the IC50 [1] was 1.65 ± 0.438 µM.
`N#Cc1ccc2c(c1)c(C[C@H](O)CO)cn2-c1ccc(Oc2ccc(F)cc2)cc1` [Compound 110, (S)-3-(2,3-Dihydroxypropyl)-1-(4-(4-fluorophenoxy)phenyl)-1H-indole-5-carbonitrile] was tested, and the IC50 [1] was 2.45 ± 0.542 µM.
`N#Cc1cccc2c(C[C@H](O)CO)cn(-c3ccc(Oc4ccc(F)cc4)cc3)c12` [Compound 115, (S)-3-(2,3-Dihydroxypropyl)-1-(4-(4-fluorophenoxy)phenyl)-1H-indole-7-carbonitrile] was tested, and the IC50 [1] was 0.474 ± 0.133 µM.
Compound `N#Cc1cccc2c1c(C[C@H](O)CO)cn2-c1ccc(Oc2ccc(F)cc2)cc1` [Compound 120, (S)-3-(2,3-Dihydroxypropyl)-1-(4-(4-fluorophenoxy)phenyl)-1H-indole-4-carbonitrile] has an IC50 [1] of 0.262 ± 0.066 µM.
`NC(=O)c1ccc2c(C[C@H](O)CO)cn(-c3ccc(Oc4ccc(F)cc4)cc3)c2c1` [Compound 123, (S)-3-(2,3-Dihydroxypropyl)-1-(4-(4-fluorophenoxy)phenyl)-1H-indole-6-carboxamide] gave an IC50 [1] of 4.92 ± 0.822 µM.
For `O=C(O)c1cccc2c1c(C[C@H](O)CO)cn2-c1ccc(Oc2ccc(F)cc2)cc1` [Compound 129, (S)-3-(2,3-Dihydroxypropyl)-1-(4-(4-fluorophenoxy)phenyl)-1H-indole-4-carboxylic acid], the IC50 [1] was 3.33 ± 0.495 µM.
In the case of `N#Cc1cc(Oc2ccc(-n3cc(C[C@@H](O)CO)c4c(C(O)CO)cccc43)cc2)ccc1C(F)(F)F` (stereo partly drawn) [Compound 139, 5-(4-(4-(1,2-Dihydroxyethyl)-3-((R)-2,3-dihydroxypropyl)-1H-indol-1-yl)phenoxy)-2-(trifluoromethyl)benzonitrile], the IC50 [1] is reported as > 20 µM.
`N#Cc1cc(Oc2ccc(-n3cc(C[C@H](O)CO)c4c(C(O)CO)cccc43)cc2)ccc1C(F)(F)F` (stereo partly drawn) [Compound 141, 5-(4-(4-(1,2-Dihydroxyethyl)-3-((S)-2,3-dihydroxypropyl)-1H-indol-1-yl)phenoxy)-2-(trifluoromethyl)benzonitrile] gave an IC50 [1] of 1.97 ± 0.494 µM.
`NC(=O)c1nn(-c2ccc(Oc3ccccc3)cc2)c2ccccc12` [Compound 145, 1-(4-Phenoxyphenyl)-1H-indazole-3-carboxamide] showed an IC50 [2] of 0.326 ± 0.043 µM.
`O=C(NO)c1nn(-c2ccc(Oc3ccccc3)cc2)c2ccccc12` [Compound 146, N-Hydroxy-1-(4-phenoxyphenyl)-1H-indazole-3-carboxamide] showed an IC50 [2] of 8.07 ± 0.484 µM.
For `OCc1cn(-c2ccc(Oc3ccc(C(F)(F)F)cc3)cc2)c2cnccc12` [Compound 164, (1-(4-(4-(Trifluoromethyl)phenoxy)phenyl)-1H-pyrrolo[2,3-c]pyridin-3-yl)methanol], the IC50 [1] was 0.345 ± 0.027 µM.
`N#Cc1ccc(Oc2ccc(-n3cc(C[C@H](O)CO)c4ccncc43)cc2)cc1` [Compound 170] showed an IC50 [1] of 1.38 ± 0.542 µM.
In the case of `CCN(CC)CCn1ccc2cc(-c3ccc(Oc4ccc(F)cc4)cc3)ccc21` [Compound 177, N,N-Diethyl-2-(5-(4-(4-fluorophenoxy)phenyl)-1H-indol-1-yl)ethanamine], the IC50 [2] is reported as 0.895 ± 0.154 µM.
`CCN(CC)CCn1cc(C(=O)C(N)=O)c2cc(-c3ccc(Oc4ccc(F)cc4)cc3)ccc21` [Compound 178, 2-(1-(2-Diethylamino)ethyl-5-(4-(4-fluorophenoxy)phenyl)-1H-indol-3-yl)-2-oxoacetamide] showed an IC50 [2] of 1.03 ± 0.076 µM.
`CCN(CC)CCn1cc(C[C@H](O)CO)c2cc(-c3ccc(Oc4ccc(F)cc4)cc3)ccc21` [Compound 182] showed an IC50 [1] of 1.06 ± 0.026 µM.
